Test results from ChEMBL document CHEMBL3885861, “Open TG-GATES”.

Species on record: Rattus norvegicus
Test: Open TG-GATES - Regimen: Daily Repeat
Format: toxicity, organism-based, Sprague-Dawley
Parameters: regimen Daily Repeat, gender Male, age 6 weeks
Details: in vivo, po, 300 mg/kg, route gavage, dose level High; for APTT / Bas / Eos / Fbg / Hb / Ht / Lym / MCH / MCHC / MCV / Mono / Neu / PT / Plat / RBC / Ret / WBC: tissue Blood; for KIDNEY_L / KIDNEY_R / KIDNEY_TOTAL: tissue Kidney; for LIVER: tissue Liver; for A/G / ALP / ALT / AST / BUN / CRE / Ca / Cl / DBIL / GLC / IP / K / LDH / Na / PL / RALB / TBIL / TC / TG / TP / gamma-GTP: tissue Plasma

In the case of `Brc1ccccc1` [BROMOBENZENE], the TERMINAL_BW (72 h, time 3 day) is reported as 204.3 g, the APTT (72 h, time 3 day) is reported as 21.2 s and the Bas (72 h, time 3 day) is reported as 0.6%. For the same compound, the Eos (72 h, time 3 day) was 1%, the Fbg (72 h, time 3 day) was 259.2 mg/dL and the Hb (72 h, time 3 day) was 13.1 g/dL. For the same compound, the Ht (72 h, time 3 day) was 38.3%, the Lym (72 h, time 3 day) was 78.4% and the MCH (72 h, time 3 day) was 21.2 pg. The MCHC (72 h, time 3 day) was 34.2%, the MCV (72 h, time 3 day) was 62.1 fL and the Mono (72 h, time 3 day) was 3%. It also gave a Neu (72 h, time 3 day) of 16.4%, a PT (72 h, time 3 day) of 12 s and a Plat (72 h, time 3 day) of 109.8 x10_4/uL. It also gave an RBC (72 h, time 3 day) of 616.6 x10_4/ul, a Ret (72 h, time 3 day) of 4.2% and a WBC (72 h, time 3 day) of 105.2 x10_2/uL. It also gave a KIDNEY_L (72 h, time 3 day) of 0.9 g, a KIDNEY_R (72 h, time 3 day) of 0.9 g and a KIDNEY_TOTAL (72 h, time 3 day) of 1.8 g. It also gave an LIVER (72 h, time 3 day) of 12 g, an A/G (72 h, time 3 day) of 0.9 and an ALP (72 h, time 3 day) of 1821.4 IU/L. For the same compound, the ALT (72 h, time 3 day) was 70.8 IU/L, the AST (72 h, time 3 day) was 110.6 IU/L and the BUN (72 h, time 3 day) was 12.4 mg/dL. The CRE (72 h, time 3 day) was 0.2 mg/dL, the Ca (72 h, time 3 day) was 10.5 mg/dL and the Cl (72 h, time 3 day) was 104.8 meq/L. For the same compound, the DBIL (72 h, time 3 day) was 0.02 mg/dL, the GLC (72 h, time 3 day) was 177.6 mg/dL and the IP (72 h, time 3 day) was 7 mg/dL. It also gave a K (72 h, time 3 day) of 4.1 meq/L, an LDH (72 h, time 3 day) of 124.2 IU/L and a Na (72 h, time 3 day) of 141.8 meq/L. It also gave a PL (72 h, time 3 day) of 184.6 mg/dL, an RALB (72 h, time 3 day) of 2.6 g/dL and a TBIL (72 h, time 3 day) of 0.08 mg/dL. It also gave a TC (72 h, time 3 day) of 96.4 mg/dL, a TG (72 h, time 3 day) of 88.4 mg/dL and a TP (72 h, time 3 day) of 5.4 g/dL. For the same compound, the gamma-GTP (72 h, time 3 day) was 1.4 IU/L, the TERMINAL_BW ([…], time 7 day) was 239.4 g and the TERMINAL_BW ([…], time 14 day) was 287 g. For the same compound, the TERMINAL_BW ([…], time 28 day) was 359.9 g, the APTT ([…], time 7 day) was 17.1 s and the Bas ([…], time 7 day) was 0%. For the same compound, the Eos ([…], time 7 day) was 0.6%, the Fbg ([…], time 7 day) was 278.2 mg/dL and the Hb ([…], time 7 day) was 12.6 g/dL. It also gave a Ht ([…], time 7 day) of 36.8%, a Lym ([…], time 7 day) of 74.4% and an MCH ([…], time 7 day) of 21.3 pg. It also gave an MCHC ([…], time 7 day) of 34.3%, an MCV ([…], time 7 day) of 62.3 fL and a Mono ([…], time 7 day) of 3.2%. The Neu ([…], time 7 day) was 21.4%, the PT ([…], time 7 day) was 12.4 s and the Plat ([…], time 7 day) was 117.3 x10_4/uL. It also gave an RBC ([…], time 7 day) of 591.2 x10_4/ul, a Ret ([…], time 7 day) of 6.9% and a WBC ([…], time 7 day) of 101.2 x10_2/uL. It also gave an APTT ([…], time 14 day) of 18.6 s, a Bas ([…], time 14 day) of 0% and an Eos ([…], time 14 day) of 0.6%. For the same compound, the Fbg ([…], time 14 day) was 288.4 mg/dL, the Hb ([…], time 14 day) was 13.4 g/dL and the Ht ([…], time 14 day) was 39.2%. For the same compound, the Lym ([…], time 14 day) was 78.4%, the MCH ([…], time 14 day) was 20.3 pg and the MCHC ([…], time 14 day) was 34.1%. It also gave an MCV ([…], time 14 day) of 59.5 fL, a Mono ([…], time 14 day) of 2.6% and a Neu ([…], time 14 day) of 17.8%. It also gave a PT ([…], time 14 day) of 12.2 s, a Plat ([…], time 14 day) of 118 x10_4/uL and an RBC ([…], time 14 day) of 658 x10_4/ul. The Ret ([…], time 14 day) was 5.1%, the WBC ([…], time 14 day) was 106.3 x10_2/uL and the APTT ([…], time 28 day) was 18.2 s. The Bas ([…], time 28 day) was 0%, the Eos ([…], time 28 day) was 1% and the Fbg ([…], time 28 day) was 295.8 mg/dL. It also gave a Hb ([…], time 28 day) of 14.6 g/dL, a Ht ([…], time 28 day) of 42.5% and a Lym ([…], time 28 day) of 73.2%. The MCH ([…], time 28 day) was 19.1 pg, the MCHC ([…], time 28 day) was 34.4% and the MCV ([…], time 28 day) was 55.5 fL. It also gave a Mono ([…], time 28 day) of 2.6%, a Neu ([…], time 28 day) of 23% and a PT ([…], time 28 day) of 12.7 s. The Plat ([…], time 28 day) was 96.5 x10_4/uL, the RBC ([…], time 28 day) was 765 x10_4/ul and the Ret ([…], time 28 day) was 2.5%. The WBC ([…], time 28 day) was 120.7 x10_2/uL, the KIDNEY_L ([…], time 7 day) was 1 g and the KIDNEY_R ([…], time 7 day) was 1 g. It also gave a KIDNEY_TOTAL ([…], time 7 day) of 2 g, a KIDNEY_L ([…], time 14 day) of 1.1 g and a KIDNEY_R ([…], time 14 day) of 1.1 g. For the same compound, the KIDNEY_TOTAL ([…], time 14 day) was 2.2 g, the KIDNEY_L ([…], time 28 day) was 1.5 g and the KIDNEY_R ([…], time 28 day) was 1.5 g. It also gave a KIDNEY_TOTAL ([…], time 28 day) of 2.9 g, an LIVER ([…], time 7 day) of 13.4 g and an LIVER ([…], time 14 day) of 15.2 g. For the same compound, the LIVER ([…], time 28 day) was 17.7 g, the A/G ([…], time 7 day) was 0.9 and the ALP ([…], time 7 day) was 1637 IU/L. The ALT ([…], time 7 day) was 44 IU/L, the AST ([…], time 7 day) was 65.2 IU/L and the BUN ([…], time 7 day) was 12.8 mg/dL. It also gave a CRE ([…], time 7 day) of 0.2 mg/dL, a Ca ([…], time 7 day) of 11.3 mg/dL and a Cl ([…], time 7 day) of 105.6 meq/L. The DBIL ([…], time 7 day) was 0.012 mg/dL, the GLC ([…], time 7 day) was 187.4 mg/dL and the IP ([…], time 7 day) was 7 mg/dL. The K ([…], time 7 day) was 4 meq/L, the LDH ([…], time 7 day) was 99.6 IU/L and the Na ([…], time 7 day) was 144.2 meq/L. For the same compound, the PL ([…], time 7 day) was 171.2 mg/dL, the RALB ([…], time 7 day) was 2.8 g/dL and the TBIL ([…], time 7 day) was 0.052 mg/dL. For the same compound, the TC ([…], time 7 day) was 88 mg/dL, the TG ([…], time 7 day) was 94.8 mg/dL and the TP ([…], time 7 day) was 6 g/dL. For the same compound, the gamma-GTP ([…], time 7 day) was 1 IU/L, the A/G ([…], time 14 day) was 0.8 and the ALP ([…], time 14 day) was 1442.4 IU/L. It also gave an ALT ([…], time 14 day) of 45.8 IU/L, an AST ([…], time 14 day) of 69.4 IU/L and a BUN ([…], time 14 day) of 15 mg/dL. The CRE ([…], time 14 day) was 0.2 mg/dL, the Ca ([…], time 14 day) was 10.8 mg/dL and the Cl ([…], time 14 day) was 106.4 meq/L. The DBIL ([…], time 14 day) was 0.01 mg/dL, the GLC ([…], time 14 day) was 185.2 mg/dL and the IP ([…], time 14 day) was 6.4 mg/dL. The K ([…], time 14 day) was 4 meq/L, the LDH ([…], time 14 day) was 63.2 IU/L and the Na ([…], time 14 day) was 144 meq/L. The PL ([…], time 14 day) was 180.4 mg/dL, the RALB ([…], time 14 day) was 2.8 g/dL and the TBIL ([…], time 14 day) was 0.04 mg/dL. It also gave a TC ([…], time 14 day) of 89.4 mg/dL, a TG ([…], time 14 day) of 123.2 mg/dL and a TP ([…], time 14 day) of 6.1 g/dL. For the same compound, the gamma-GTP ([…], time 14 day) was 1.2 IU/L, the A/G ([…], time 28 day) was 0.8 and the ALP ([…], time 28 day) was 1183.4 IU/L. For the same compound, the ALT ([…], time 28 day) was 42.8 IU/L, the AST ([…], time 28 day) was 65.4 IU/L and the BUN ([…], time 28 day) was 15.2 mg/dL. The CRE ([…], time 28 day) was 0.2 mg/dL, the Ca ([…], time 28 day) was 10.4 mg/dL and the Cl ([…], time 28 day) was 106.8 meq/L. The DBIL ([…], time 28 day) was 0.022 mg/dL, the GLC ([…], time 28 day) was 185.2 mg/dL and the IP ([…], time 28 day) was 5.6 mg/dL. The K ([…], time 28 day) was 4 meq/L, the LDH ([…], time 28 day) was 73 IU/L and the Na ([…], time 28 day) was 143.4 meq/L. It also gave a PL ([…], time 28 day) of 165.4 mg/dL, an RALB ([…], time 28 day) of 2.7 g/dL and a TBIL ([…], time 28 day) of 0.048 mg/dL. The TC ([…], time 28 day) was 79.8 mg/dL, the TG ([…], time 28 day) was 154.2 mg/dL and the TP ([…], time 28 day) was 6.2 g/dL. The gamma-GTP ([…], time 28 day) was 1.2 IU/L.
